Values of other authors, collected in patent US6086919A, “Pharmaceutical composition containing the ace inhibitor ramipril and a dihydropyridine compound” (priority 1994, dated 2000).

What was measured:
vasodilatory effect = settings: in words
[1] = test system: hypertensive patients; patients with clinical signs of congestive heart failure

CCOC(=O)C1=C(C)NC(C)=C(C(=O)OC)[C@@H]1c1cccc(Cl)c1Cl [S form]
Vasodilatory effect compared with the R form (vasodilatory effect): stronger than the vasodilatory effect of the R form

CCOC(=O)[C@H](CCc1ccccc1)N[C@@H](C)C(=O)N1[C@H](C(=O)O)C[C@@H]2CCC[C@@H]21 [ramipril]
Sensitivity of the substance (stability): sensitive to high temperature, moisture or compression | Mortality ([1]; clinical signs of congestive heart failure after acute myocardial infarction): reduce mortality | Reduction of blood pressure and peripheral arterial resistance ([1]; hypertensive patients): reduction in peripheral arterial resistance and thus a reduction of the blood pressure without a compensatory rise in heart rate

CCOC(=O)C1=C(C)NC(C)=C(C(=O)OC)C1c1cccc(Cl)c1Cl (centres unmarked) [felodipine]
Light stability (when exposed to light): decomposed when exposed to light
